Test results taken from patent publication US6495699B2, “Metalloproteinase inhibitors, pharmaceutical compositions containing them, and their use” (Agouron Pharmaceuticals Inc., priority 1996, dated 2002).

How the values were obtained:
[1] = target: T1, catalytic domain of human stromelysin (Hsln) (Homo sapiens, UniProt P08254); test: Fluorometric MCA-peptide hydrolysis assay, stromelysin (Hsln); type: biochemical; settings: apparent Ki; 10 μM MCA peptide substrate, 37° C., pH 7.5; read-out: Hsln (Ki,app)
T1 construct: The catalytic domain of human stromelysin (Hsln) was obtained by expression and purification of a C-terminally truncated prostromelysin-1; made in house; host or cells: E. coli BL21
T1 sequence (P08254 100-272 limits assumed): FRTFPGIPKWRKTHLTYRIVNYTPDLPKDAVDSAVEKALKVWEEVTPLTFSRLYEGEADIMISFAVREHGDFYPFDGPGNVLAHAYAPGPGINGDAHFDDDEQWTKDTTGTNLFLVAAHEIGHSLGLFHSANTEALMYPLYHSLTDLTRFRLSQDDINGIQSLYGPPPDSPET
In short: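 APMA-activated E. coli–expressed catalytic domain, with 10 μM MCA-Pro-Leu-Gly-Leu-DPA-Ala-Arg-NH2 at 37 °C. Buffer was pH 7.5 Tricine with NaCl, CaCl2, zinc acetate and 2% final DMSO; fluorescence read at ex 328/em 393 nm over 60 min. Ki,app from steady-state rates fitted to competitive or Morrison tight-binding equations.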

[2] = LogP; type: physicochemical
[3] = target: T2, human collagenase-3 (Coll3) (Homo sapiens, UniProt P45452); test: Fluorometric MCA-peptide hydrolysis assay, collagenase-3 (Coll3); type: biochemical; settings: apparent Ki; 10 μM MCA peptide substrate, 37° C., pH 7.5; read-out: Coll3 (Ki,app)
T2 construct: the catalytic domain was liberated by treatment with 2 mM APMA at room temperature overnight; ubiquitin (N, cleaved yes); made in house; host or cells: E. coli

[4] = target: T3, human progelatinase A (GelA), catalytic and fibronectin-like portion (Homo sapiens, UniProt P08253); test: Fluorometric MCA-peptide hydrolysis assay, gelatinase A (GelA); type: biochemical; settings: apparent Ki; 10 μM MCA peptide substrate, 37° C., pH 7.5
T3 construct: The catalytic and fibronectin-like portion of human progelatinase A (GelA) was expressed as a fusion protein with ubiquitin; ubiquitin; made in house; host or cells: E. coli
T3 sequence (P08253 110-465 limits assumed): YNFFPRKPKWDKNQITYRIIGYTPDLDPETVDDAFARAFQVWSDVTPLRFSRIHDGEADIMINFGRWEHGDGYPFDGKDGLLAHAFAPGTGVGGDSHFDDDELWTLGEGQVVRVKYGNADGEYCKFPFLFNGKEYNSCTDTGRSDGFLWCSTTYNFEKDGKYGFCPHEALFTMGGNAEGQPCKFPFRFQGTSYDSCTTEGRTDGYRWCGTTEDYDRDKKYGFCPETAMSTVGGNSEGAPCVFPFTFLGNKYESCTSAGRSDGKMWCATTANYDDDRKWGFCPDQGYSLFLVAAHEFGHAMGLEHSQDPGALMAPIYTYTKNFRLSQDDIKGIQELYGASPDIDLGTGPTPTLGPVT
In short: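 E. coli-expressed ubiquitin fusion of human proGelA catalytic plus fibronectin-like domains, autoactivated; 10 μM MCA-Pro-Leu-Gly-Leu-DPA-Ala-Arg-NH2, pH 7.5 Tricine/NaCl/CaCl2/Zn buffer, 2% DMSO, 37° C, 60 min. Fluorescence 328/393 nm; steady-state rates fitted to competitive inhibition or Morrison tight-binding equation giving Ki,app (≈Ki since [S]<<Km).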

[5] = target: T4, Human matrilysin (Matr) (Homo sapiens, UniProt P09237); test: Fluorometric MCA-peptide hydrolysis assay, matrilysin (Matr); type: biochemical; settings: apparent Ki; 10 μM MCA peptide substrate, 37° C., pH 7.5; read-out: Matr (Ki,app)
T4 construct: the catalytic domain was liberated by treatment with 2 mM APMA at 37° C. for 2 hours; ubiquitin (cleaved yes); made in house; host or cells: E. coli
T4 sequence (P09237 95-267): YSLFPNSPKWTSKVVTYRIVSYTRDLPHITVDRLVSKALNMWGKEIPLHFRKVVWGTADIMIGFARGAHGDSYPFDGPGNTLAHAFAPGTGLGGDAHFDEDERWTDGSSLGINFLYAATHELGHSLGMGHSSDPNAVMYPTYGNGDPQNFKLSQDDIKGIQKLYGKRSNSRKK
In short: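 Catalytic domain of E. coli-expressed human matrilysin assayed at 37° C, pH 7.5 Tricine buffer, 2% DMSO, with 10 μM MCA-Pro-Leu-Gly-Leu-DPA-Ala-Arg-NH2; fluorescence ex 328/em 393 nm over 60 min. Ki,app from steady-state rates fitted to competitive inhibition or Morrison tight-binding equation.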

[6] = Determination of inhibitor concentration in plasma after oral dosing; type: in vivo, Sprague Dawley rats; settings: Sprague-Dawley, rat plasma, dose 50 mg/kg, vehicle A (molar equivalent of HCl in water)
Protocol: The dosing solution consisted of the inhibitor dissolved in either a molar equivalent of HCl in water (vehicle A), in 60% aq. propylene glycol (vehicle B), or in 2.8 mg/mL sodium bicarbonate in 60% aqueous propylene glycol (vehicle C), yielding a final concentration that ranged from 10-15 mg/ml. Sprague Dawley rats (Hilltop Lab Animals, Scottsdale, Pa.) were dosed as a function of drug weight per body weight, usually 50 mgper kg. Blood was taken from the rats and centrifuged, and the plasma was stored in the freezer. Drug was extracted from a 50 μl plasma aliquot by adding 1 ml of acetonitrile, shaking for 2 minutes, centrifuging for 15 minutes at 4000 rpm, collecting the supernatant, and then evaporating it to dryness under a stream of nitrogen. The samples were reconstituted with 130 μl of mobile phase, shook for 2 minutes, and centrifuged for 15 minutes at 4000 rpm. The supernatant was collected and the samples were analyzed by injecting 100 μl of supernatant onto HPLC.
Quantitation of drug levels was accomplished by generating a standard curve of known drug amounts that were extracted from added plasma. Drug levels were plotted as a function of time and analyzed to provide area under the curve (AUC) and maximum concentration (Cmax) values.

[7] = target: T5, fibroblast collagenase-1 catalytic domain (HFC) (Homo sapiens, UniProt P03956); test: Fluorometric MCA-peptide hydrolysis assay, fibroblast collagenase-1 (HFC); type: biochemical; settings: apparent Ki; 10 μM MCA peptide substrate, 37° C., pH 7.5; read-out: HFC (Ki,app)
T5 construct: The catalytic domain of human collagenase-1 was expressed as a fusion protein with ubiquitin in E. coli; ubiquitin (cleaved yes); made in house; host or cells: E. coli
T5 sequence (P03956 100-269 limits assumed): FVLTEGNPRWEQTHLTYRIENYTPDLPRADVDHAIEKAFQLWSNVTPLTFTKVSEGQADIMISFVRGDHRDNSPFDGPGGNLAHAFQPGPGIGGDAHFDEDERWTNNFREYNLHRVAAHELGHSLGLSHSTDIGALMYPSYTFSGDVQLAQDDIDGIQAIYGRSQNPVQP
Protocol: The catalytic domain of human collagenase-1 was expressed as a fusion protein with ubiquitin in E. coli (see Gehring, E. R., J Biol. Chem., 1995, 270, 22507). After purification of the fusion protein, the fibroblast collagenase-1 catalytic domain (HFC) was released either by treatment with purified, active stromelysin-1 (1:50 w/w ratio), which generated nearly 100% N-terminal Phe1, or by autoprocessing the concentrated collagenase-1 fusion and then incubating at 37° C. for 1 hour. Final purification was completed using zinc chelate chromatography.
Assays were performed in assay buffer (50 mM Tricine pH 7.5, 200 mM sodium chloride, 10 mM calcium chloride, 0.5 mM zinc acetate containing 2% dimethyl sulfoxide (DMSO)) once the substrate and inhibitor were diluted into it. Stock solutions of inhibitors were prepared in 100% DMSO. Stock solutions of the substrate were prepared in 100% DMSO at a concentration of 6 mM.
The assay method was based on the hydrolysis of MCA-Pro-Leu-Gly-Leu-DPA-Ala-Arg-NH2 (American Peptide Co.) at 37° C. (see Knight, C. G. et al., FEBS, 1992, 296, 263-266). The fluorescence changes were monitored with a Perkin-Elmer LS-50B fluorimeter using an excitation wavelength of 328 nm and an emission wavelength of 393 nm. The substrate concentration used in the assays was 10 μM. The inhibitor was diluted into the assays from a solution in 100% DMSO, and controls substituted an equal volume of DMSO so that the final DMSO concentration from inhibitor and substrate dilution in all assays was 2%. […] Proper determination of steady-state rates of substrate cleavage required assay lengths of 60 minutes to allow for complete equilibration of the enzyme-inhibitor complex.
The Km for the MCA peptide substrate with the matrix metalloproteinases is quite high and exceeds its solubility under assay conditions. Consequently, the apparent Ki (Ki,app) was determined to describe the strength of inhibition. However, in this case, Ki,app would be essentially equal to Ki since [S]<<Km. For the determination of Ki,app, the concentration of the inhibitor was varied at a constant and low concentration of substrate and the steady-state rates of fluorescence change determined. In most cases absorptive quench due to the presence of ligand was not observed. For slow-binding inhibitors, onset of inhibition curves were collected for at least 45 minutes so that equilibrium was established. Steady-state rates of fluorescence change were obtained by fitting a curve to an equation for a single exponential decay containing a linear phase. The fitted value of the linear phase was taken as the steady-state rate. The steady-state rates were fitted to the Michaelis equation describing competitive inhibition by non-linear methods. Data resulting from tight-binding inhibition was analyzed, and Ki,app determined by fitting the data to the tight-binding equation of Morrison (Biochem. Biophys. Acta, vol. 185, pp. 269-286 (1969)) by non-linear methods.

Row | Compound | Ki [1] | logP [2] | Ki [3] | GelA (Ki,app) [4] | Ki [5] | melting point | AUC [6] | Cmax [6] | Ki [7]
1 | CNC(=O)[C@@H](NC(=O)[C@@H](CC(=O)O)n1ccc(-c2ccccc2)c1)C(C)(C)C [1(b), N-[2,2-Dimethyl-1(S)-(methylcarbamoyl)propyl]-3(R)-(3-phenyl-1H-pyrrol-1-yl)succinamic acid] | 2000 nM | -0.83 | 18.3 nM | 5.91 nM |  |  |  |  | 
2 | O=C(O)C[C@H](C(=O)N[C@H]1Cc2cn(c3ccccc23)CCOCCNC1=O)n1ccc(-c2ccccc2)c1 [Example 1(c), N-(8-Oxo-4-oxa-1,7-diazatricyclo[9.6.1.0^12,17]octadeca-11(18), 12,14,16-tetraen-9(S)-yl)-3(R)-(3-phenyl-1H-pyrrol-1-yl)succinamic Acid] | 486 nM | -0.97 | 0.868 nM | 2 nM | 16900 nM |  |  |  | 
3 | CNC(=O)[C@@H](NC(=O)[C@@H](CC(=O)O)n1ccc(-c2ccc(-c3ccccc3)cc2)c1)C(C)(C)C [Example 1(e), 3(R)-[3-(Biphenyl-4-yl)-1H-pyrrol-1-yl]-N-[2,2-dimethyl-1(S)-(methylcarbamoyl)propyl]succinamic Acid] | 3.1 nM | 1.19 | 0.9 nM | 0.108 nM | 500 nM |  |  |  | 
4 | CC(C)(C)[C@@H](CO)NC(=O)[C@@H](CC(=O)O)n1ccc(-c2ccc(-c3ccncc3)cc2)c1 [Example 5(a), N-[2,2-Dimethyl-1(S)-(hydroxymethyl)propyl]-3(R)-[3-[4-(pyridin-4-yl)phenyl]-1H-pyrrol-1-yl]succinamic Acid] | 84 nM | 0.11 | 1.8 nM | 1.6 nM |  | 192 to 194 °C | 3520 ng·h/mL | 1600 ng/mL | 
5 | CNC(=O)[C@@H](NC(=O)[C@@H](CC(=O)O)n1ccc(-c2ccc(-c3ccc(C(N)=O)cc3)cc2)c1)C(C)(C)C [Example 5(e), 3(R)-[3-(4′-Carbamoylbiphenyl-4-yl)-1H-pyrrol-1-yl]-N-(2,2-dimethyl-1(S)-(methylcarbamoyl)propyl)succinamic Acid] | 1.7 nM | 1.71 | 0.076 nM | 0.109 nM | 182 nM |  |  |  | 530 nM
6 | CC(C)(C)[C@H](NC(=O)[C@@H](CC(=O)O)n1ccc(-c2ccc(-c3ccc(C(N)=O)cc3)cc2)c1)C(=O)Nc1ccncc1 [Example 5(f), 3(R)-[3-(4′-Carbamoylbiphenyl-4-yl)-1H-pyrrol-1-yl]-N-[2,2-dimethyl-1(S)-(N-(pyridin-4-yl)carbamoyl)propyl]succinamic Acid] | 0.46 nM | 2.56 | 0.012 nM | 0.023 nM | 2.1 nM | 194 to 196 °C |  |  | 818 nM
